From patent US8779779B2, “On-chip cell migration detection” (CapitalBio Corporation, priority 2008, dated 2014)

System: Vero-E6 cells
Test: Real time inhibition assay of cell migration (on-chip SAM wound edge with cellular impedance sensing)
Format: cell-based
Description: For at least one of the electrodes, the surface is treated with a chemical coating that inhibits cell adhesion onto the electrode (302). This generates a chemical coat-modified surface on the electrodes. The chemical coating maintains contact with the surface of the electrodes until desorbed by application of an electrical signal capable of desorbing the coating. The chemical coating can be applied by contacting the electrodes with a solution or suspension of coating material in a carrier, or by contacting the electrode with the coating material without a carrier. A background impedance value is measured in absence of cells (304). After measuring the background impedance (Z0), target cells are added to the device (306). A layer of cells is allowed to grow on the surface of the device (308). […] As a result, all the cells grow on the surface of the SiO2 insulation substrate forming a cell monolayer. After incubation, wound edges are formed automatically on the device. Once the cells have grown over the surfaces, an electrical signal is applied to the electrodes, which causes the chemical coating to desorb from the electrodes (310). This provides a cell-free electrode surface surrounded by cells growing on the adjacent insulation. The cell impedance (Zx) is monitored in real-time as the cells grow or migrate across the electrodes (312). Cells growing on the electrodes can cause measurable changes in the electrical properties of the circuit, e.g., impedance; consequently, the rate of cell migration or spreading can be monitored by monitoring electrical properties of the electrodes. The final impedance data is normalized as Zx/Z0 (314). The normalized impedance data reflects the impedance variation induced by the attachment of the cells.
For illustrative purposes, the process 300 is described using an example protocol for monitoring cell migration. An example protocol includes preparing an impedance measuring device (e.g., device 100) for impedance measurement by sterilizing the device. After sterilization, (e.g., in 75% ethanol for 20 minutes and then exposure to UV irradiation for another 30 minutes), a thiol compound is added to the microfluidic cavities. Thiol compound (HS(CH2)11(OCH2CH2)6OH (abbreviated as “EG6”) is obtained from Sigma-Aldrich (St. Louis, Mo.). EG6 (1.5 mM in ethanol) can be added to each microfluidic cavity of the device using a syringe and incubated for 8 hours at room temperature. Then, the microfluidic cavities are washed by ethanol followed by PBS buffer. Before cell seeding, tissue culture media is injected into chambers of the device to read the background impedance value (Z0). […]
At the same time, the impedance (Zx) is measured in real-time with a time resolution of 5 minutes, for example. […]

Structure (SMILES): COc1cc2c(c(OC)c1OC)-c1ccc(OC)c(=O)cc1[C@@H](NC(C)=O)CC2 [colchicine]
- time point at which the cells heal a wound (t0.1; impedance saturation) (0.1 μM colchicine, Vero-E6 cells, control tc=4.2±0.17 h): 4.6 ± 0.19 h
- time point at which the cells heal a wound (t0.2; impedance saturation) (0.2 μM colchicine, Vero-E6 cells, control tc=4.2±0.17 h): 5.1 ± 0.21 h
- time point at which the cells heal a wound (t0.4; impedance saturation) (0.4 μM colchicine, Vero-E6 cells, control tc=4.2±0.17 h): 8.2 ± 0.42 h
- inhibition effect on Vero-E6 cell migration (average speed AS) (0.1, 0.2 and 0.4 μM, AS=R×t^−1, FIG. 7B): inhibits Vero-E6 cell migration in a drug concentration dependant manner
